Data reported in PubChem BioAssay AID330 (DTP/NCI, 2004).
Several values for one entry are separate records, joined by “and”; a condition that tells them apart may be missing. Identical values can stand only once. Inconclusive results and toxic doses are left out. Rule for the calls: active = survival T/C of 150% or more; inactive = T/C below 125% in these data.

Test system: P388 leukemia ip, CD2F1 mice, survival T/C
Assay: NCI In Vivo Anticancer Drug Screen. Data for tumor model P388 Leukemia (intraperitoneal) in CD2F1 (CDF1) mice
Conditions: endpoint: median survival time, higher = longer survival
Procedure, shortened: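 Mice carrying the transplanted tumor received test compound or vehicle. Survival was recorded in each group, and the value is the treated-group measurement divided by that of the vehicle-treated control group.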

[1] = dose: 50.0 mg/kg/injection, schedule: Q01DX009 (ip), vehicle: Klucel (hydroxypropylcellulose) (HPC)
[2] = dose: 100.0 mg/kg/injection, schedule: Q01DX009 (ip), vehicle: saline with Tween-80
[3] = dose: 60.0 mg/kg/injection, schedule: Q01DX005 (ip), vehicle: saline with Tween-80
[4] = dose: 120.0 mg/kg/injection, schedule: Q01DX005 (ip), vehicle: saline with Tween-80
[5] = dose: 100.0 mg/kg/injection, schedule: Q01DX009 (ip), vehicle: Klucel (hydroxypropylcellulose) (HPC)
[6] = dose: 200.0 mg/kg/injection, schedule: Q01DX009 (ip), vehicle: Klucel (hydroxypropylcellulose) (HPC)
[7] = dose: 60.0 mg/kg/injection, schedule: Q01DX005 (ip), vehicle: saline
[8] = dose: 120.0 mg/kg/injection, schedule: Q01DX005 (ip), vehicle: saline
[9] = dose: 25.0 mg/kg/injection, schedule: Q01DX005 (ip), vehicle: Klucel (hydroxypropylcellulose) (HPC)
[10] = dose: 50.0 mg/kg/injection, schedule: Q01DX005 (ip), vehicle: Klucel (hydroxypropylcellulose) (HPC)
[11] = dose: 100.0 mg/kg/injection, schedule: Q01DX005 (ip), vehicle: Klucel (hydroxypropylcellulose) (HPC)
[12] = dose: 200.0 mg/kg/injection, schedule: Q01DX005 (ip), vehicle: Klucel (hydroxypropylcellulose) (HPC)

Measured: T/C

COc1ccc(C(CC(=O)O)C(N)C(=O)O)cc1 (configuration not stated)
inactive: dose: 50.0 mg/kg/injection, schedule: Q01DX009 (ip), vehicle: suspension in saline 88 % of control | dose: 100.0 mg/kg/injection, schedule: Q01DX009 (ip), vehicle: suspension in saline 87 % of control | dose: 200.0 mg/kg/injection, schedule: Q01DX009 (ip), vehicle: suspension in saline 95 % of control

S=[As]1(c2cccc3ccccc23)c2ccccc2-c2ccccc21
inactive: dose: 30.0 mg/kg/injection, schedule: Q01DX009 (ip), vehicle: saline with Tween-80 106 % of control | dose: 60.0 mg/kg/injection, schedule: Q01DX009 (ip), vehicle: saline with Tween-80 100 % of control | dose: 120.0 mg/kg/injection, schedule: Q01DX009 (ip), vehicle: saline with Tween-80 110 % of control

COc1cc(Cc2nccc3cc(OC)c(OC)cc23)c(C(C)=O)cc1OC
active: dose: 12.5 mg/kg/injection, schedule: Q01DX009 (ip), vehicle: saline sonified 161 % of control
inactive: dose: 3.13 mg/kg/injection, schedule: Q01DX009 (ip), vehicle: saline sonified 123 % of control | dose: 12.5 mg/kg/injection, schedule: Q01DX009 (ip), vehicle: Klucel (hydroxypropylcellulose) (HPC) 105 % of control | dose: 25.0 mg/kg/injection, schedule: Q01DX009 (ip), vehicle: Klucel (hydroxypropylcellulose) (HPC) 106 % of control | [1] 113 % of control | dose: 100.0 mg/kg/injection, schedule: Q04DX003 (ip), vehicle: saline with Tween-80 100 % of control

COCC/C(COC)=N\N=C(/CCOC)COC
inactive: [2] 109 % of control | dose: 100.0 mg/kg/injection, schedule: Q04DX003 (ip), vehicle: saline sonified 104 % of control | dose: 200.0 mg/kg/injection, schedule: Q04DX003 (ip), vehicle: saline sonified 100 % of control | dose: 400.0 mg/kg/injection, schedule: Q04DX003 (ip), vehicle: saline sonified 104 % of control

Cc1cc2c(cc1C)[n+](=O)c1c(n2[O-])CCC1
inactive: [3] 100 % of control | [4] 95 % of control

O=P(C(=S)Nc1ccc(S(=O)(=O)N2CCCCC2)cc1)(c1ccccc1)c1ccccc1
inactive: [1] 97 % of control | [5] 95 % of control | [6] 98 % of control

Cc1ccc(-n2ncc3c(=O)n(-c4cccc(C)c4)c(=O)[nH]c32)cc1
inactive: [1] 99 % of control | [5] 97 % of control | [6] 96 % of control

COc1ccc(C(=O)C(CN2CCOCC2)CN2CCOCC2)cc1
inactive: [7] 96 % of control | [8] 111 % of control

CCOC(=O)C(C(=O)OCC)=C(N)C(Cl)(Cl)Cl
inactive: [9] 116 % of control | [10] 117 % of control | [11] 111 % of control | [12] 110 % of control

CCCCNC1Cc2ccccc2CC1O (configuration not stated)
inactive: dose: 0.79 mg/kg/injection, schedule: Q01DX005 (ip), vehicle: saline 100 % of control and 107 % of control | dose: 1.56 mg/kg/injection, schedule: Q01DX005 (ip), vehicle: saline 100 % of control and 104 % of control | dose: 3.12 mg/kg/injection, schedule: Q01DX005 (ip), vehicle: saline 101 % of control and 105 % of control and 115 % of control | dose: 6.25 mg/kg/injection, schedule: Q01DX005 (ip), vehicle: saline 100 % of control and 108 % of control and 121 % of control | dose: 12.5 mg/kg/injection, schedule: Q01DX005 (ip), vehicle: saline 104 % of control

Cc1ccccc1NC(=O)Nc1sc(=S)c2c(c1C#N)CCCC2
inactive: dose: 50.0 mg/kg/injection, schedule: Q01DX005 (ip), vehicle: saline with Tween-80 94 % of control | dose: 100.0 mg/kg/injection, schedule: Q01DX005 (ip), vehicle: saline with Tween-80 103 % of control | dose: 200.0 mg/kg/injection, schedule: Q01DX005 (ip), vehicle: saline with Tween-80 103 % of control

Cc1ccc(N(CN2C(=O)CCC2=O)CS(=O)(=O)c2ccc(Cl)cc2)cc1
inactive: dose: 15.0 mg/kg/injection, schedule: Q01DX005 (ip), vehicle: Klucel (hydroxypropylcellulose) (HPC) 107 % of control | dose: 30.0 mg/kg/injection, schedule: Q01DX005 (ip), vehicle: Klucel (hydroxypropylcellulose) (HPC) 91 % of control | dose: 60.0 mg/kg/injection, schedule: Q01DX005 (ip), vehicle: Klucel (hydroxypropylcellulose) (HPC) 93 % of control and 95 % of control | dose: 240.0 mg/kg/injection, schedule: Q01DX005 (ip), vehicle: Klucel (hydroxypropylcellulose) (HPC) 90 % of control

CN(C)c1ccc(C(=C2C=CC(=[N+](C)c3ccccc3)c3ccccc32)c2ccc(N(C)C)cc2)cc1
inactive: dose: 1.56 mg/kg/injection, schedule: Q01DX005 (ip), vehicle: saline with Tween-80 116 % of control

Nc1ccccc1NC(=O)c1nc2ccccc2[nH]1
inactive: dose: 100.0 mg/kg/injection, schedule: Q04DX003 (ip), vehicle: Klucel (hydroxypropylcellulose) (HPC) 106 % of control | dose: 200.0 mg/kg/injection, schedule: Q04DX003 (ip), vehicle: Klucel (hydroxypropylcellulose) (HPC) 97 % of control | dose: 400.0 mg/kg/injection, schedule: Q04DX003 (ip), vehicle: Klucel (hydroxypropylcellulose) (HPC) 97 % of control

O=NNc1c2c(nc3ccccc13)CCCC2
inactive: dose: 3.12 mg/kg/injection, schedule: Q01DX009 (ip), vehicle: water 94 % of control | dose: 6.25 mg/kg/injection, schedule: Q01DX009 (ip), vehicle: water 94 % of control | dose: 12.5 mg/kg/injection, schedule: Q01DX009 (ip), vehicle: water 103 % of control | dose: 25.0 mg/kg/injection, schedule: Q01DX009 (ip), vehicle: water 100 % of control and 111 % of control and 112 % of control | dose: 50.0 mg/kg/injection, schedule: Q01DX009 (ip), vehicle: water 100 % of control and 110 % of control and 123 % of control | dose: 100.0 mg/kg/injection, schedule: Q01DX009 (ip), vehicle: water 100 % of control and 106 % of control | dose: 200.0 mg/kg/injection, schedule: Q01DX009 (ip), vehicle: water 89 % of control

CCOC=C=CCOCC
inactive: [7] 100 % of control | [8] 96 % of control | dose: 240.0 mg/kg/injection, schedule: Q01DX005 (ip), vehicle: saline 96 % of control

CC(=O)C1OC1c1ccccn1 (configuration not stated)
inactive: dose: 25.0 mg/kg/injection, schedule: Q01DX005 (ip), vehicle: saline 102 % of control | dose: 25.0 mg/kg/injection, schedule: Q01DX005 (ip), vehicle: suspension in saline 103 % of control | dose: 50.0 mg/kg/injection, schedule: Q01DX005 (ip), vehicle: saline 102 % of control | dose: 50.0 mg/kg/injection, schedule: Q01DX005 (ip), vehicle: suspension in saline 100 % of control | dose: 100.0 mg/kg/injection, schedule: Q01DX005 (ip), vehicle: saline 104 % of control | dose: 100.0 mg/kg/injection, schedule: Q01DX005 (ip), vehicle: suspension in saline 110 % of control | dose: 200.0 mg/kg/injection, schedule: Q01DX005 (ip), vehicle: saline 102 % of control | dose: 200.0 mg/kg/injection, schedule: Q01DX005 (ip), vehicle: suspension in saline 100 % of control

CN=C(NC#N)NCCSCc1nc[nH]c1C
inactive: [9] 102 % of control | [10] 93 % of control | [11] 93 % of control | [12] 102 % of control | dose: 400.0 mg/kg/injection, schedule: Q01DX005 (ip), vehicle: Klucel (hydroxypropylcellulose) (HPC) 93 % of control

Cc1ccc(C2(Br)C(=O)c3ccccc3C2=O)cc1
inactive: dose: 100.0 mg/kg/injection, schedule: Q04DX002 (ip), vehicle: saline 103 % of control | dose: 200.0 mg/kg/injection, schedule: Q04DX002 (ip), vehicle: saline 102 % of control | dose: 400.0 mg/kg/injection, schedule: Q04DX002 (ip), vehicle: saline 101 % of control

COc1cc2c(cc1OC)C(C1c3cc(OC)c(OC)cc3-c3c(OC)c(OC)cc4c3C1N(C)CC4)C1c3c(cc(OC)c(OC)c3-2)CCN1C (configuration not stated)
inactive: dose: 100.0 mg/kg/injection, schedule: Q04DX003 (ip), vehicle: saline 99 % of control | dose: 200.0 mg/kg/injection, schedule: Q04DX003 (ip), vehicle: saline 100 % of control | dose: 400.0 mg/kg/injection, schedule: Q04DX003 (ip), vehicle: saline 97 % of control

COC(=O)c1nc2n[nH]c(N)c2c2c1CCCCCCCCCC2
inactive: [3] 99 % of control | [4] 93 % of control | dose: 240.0 mg/kg/injection, schedule: Q01DX005 (ip), vehicle: saline with Tween-80 94 % of control

CCCCCc1ccccc1
inactive: [2] 106 % of control | dose: 200.0 mg/kg/injection, schedule: Q01DX009 (ip), vehicle: saline with Tween-80 109 % of control

Cc1nc(Nc2ccccc2)c2c(C)c[nH]c2n1
inactive: [10] 100 % of control | [11] 94 % of control
